# From PubChem BioAssay (NCI)
#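 Values below derive from 48-hour exposures of cells grown in 96-well plates, with endpoints linearly interpolated between the two concentrations bracketing the appropriate inhibition level. The concentration for 50% growth inhibition is given as GI50. Definition used: TGI = concentration required for complete inhibition of growth.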
# Columns and labels:
# Assay in all cases: NCI anticancer screen, dose series, 48 h
# [1] = tested on: 786-0 renal
# [2] = tested on: A498 renal
# [3] = tested on: A549 NSCLC
# [4] = tested on: ACHN renal
# [5] = tested on: BT-549 breast
# [6] = tested on: CAKI-1 renal
# [7] = tested on: CCRF-CEM leukemia
# [8] = tested on: COLO 205 colon
# [9] = tested on: DU-145 prostate
# [10] = tested on: EKVX NSCLC
# [11] = tested on: HCC-2998 colon
# [12] = tested on: HCT-116 colon
# [13] = tested on: HCT-15 colon
# [14] = tested on: HL-60(TB) leukemia
# [15] = tested on: HOP-62 NSCLC
# [16] = tested on: HOP-92 NSCLC
# [17] = tested on: HS 578T breast
# [18] = tested on: HT29 colon
# [19] = tested on: IGROV1 ovarian
# [20] = tested on: K-562 leukemia
# [21] = tested on: KM12 colon
# [22] = tested on: LOX IMVI melanoma
# [23] = tested on: M14 melanoma
# [24] = tested on: MALME-3M melanoma
# [25] = tested on: MCF7 breast
# [26] = tested on: MDA-MB-231 breast
# [27] = tested on: MDA-MB-435
# [28] = tested on: MOLT-4 leukemia
# [29] = tested on: NCI-H226 lung
# [30] = tested on: NCI-H23 lung
# [31] = tested on: NCI-H460 lung
# [32] = tested on: NCI-H522 lung
# [33] = tested on: NCI/ADR-RES ovarian
# [34] = tested on: OVCAR-3 ovarian
# [35] = tested on: OVCAR-4 ovarian
# [36] = tested on: OVCAR-5 ovarian
# [37] = tested on: OVCAR-8 ovarian
# [38] = tested on: PC-3 prostate
# [39] = tested on: RPMI-8226 leukemia
# [40] = tested on: RXF 393 renal
# [41] = tested on: SF-268 CNS
# [42] = tested on: SF-295 CNS
# [43] = tested on: SF-539 CNS
# [44] = tested on: SK-MEL-2 melanoma
# [45] = tested on: SK-MEL-28 melanoma
# [46] = tested on: SK-MEL-5 melanoma
# [47] = tested on: SK-OV-3 ovarian
# [48] = tested on: SN12C renal
# [49] = tested on: SNB-19 CNS
# [50] = tested on: SNB-75 CNS
# [51] = tested on: SR leukemia
# [52] = tested on: SW-620 colon
# [53] = tested on: T-47D breast
# [54] = tested on: TK-10 renal
# [55] = tested on: U251 CNS
# [56] = tested on: UACC-257 melanoma
# [57] = tested on: UACC-62 melanoma
# [58] = tested on: UO-31 renal
smiles,measurement,setting,value
O=C(Nc1ccc(Cl)c([N+](=O)[O-])c1)Nc1nc2ccccc2s1,GI50,[1],10.3 µM
same,TGI,[1],26.8 µM
same,GI50,[2],2.14 µM
same,TGI,[2],8.01 µM
same,GI50,[3],3.37 µM
same,TGI,[3],13 µM
same,GI50,[4],3.34 µM
same,TGI,[4],12.8 µM
same,GI50,[5],16.4 µM
same,TGI,[5],44.7 µM
same,GI50,[6],2.08 µM
same,TGI,[6],6.46 µM
same,GI50,[7],3.88 µM
same,TGI,[7],20.8 µM
same,GI50,[8],1.78 µM
same,TGI,[8],3.39 µM
same,GI50,[9],4.22 µM
same,TGI,[9],14.6 µM
same,GI50,[10],2.59 µM
same,TGI,[10],10.9 µM
same,GI50,[11],3.03 µM
same,TGI,[11],13.1 µM
same,GI50,[12],3.57 µM
same,TGI,[12],14.9 µM
same,GI50,[13],3.32 µM
same,TGI,[13],15.5 µM
same,GI50,[14],4.48 µM
same,TGI,[14],24 µM
same,GI50,[15],3.21 µM
same,TGI,[15],12 µM
same,GI50,[16],2.34 µM
same,TGI,[16],7.06 µM
same,GI50,[17],2.85 µM
same,TGI,[17],12.3 µM
same,GI50,[18],3.51 µM
same,TGI,[18],11.6 µM
same,GI50,[19],3.62 µM
same,TGI,[19],17.4 µM
same,GI50,[20],4.15 µM
same,TGI,[20],> 100 µM
same,GI50,[21],2.82 µM
same,TGI,[21],8.32 µM
same,GI50,[22],3.98 µM
same,TGI,[22],21 µM
same,GI50,[23],11.3 µM
same,TGI,[23],33 µM
same,GI50,[24],2.62 µM
same,TGI,[24],7.36 µM
same,GI50,[25],3.02 µM
same,TGI,[25],15.5 µM
same,GI50,[26],3.5 µM
same,TGI,[26],12.1 µM
same,GI50,[27],2.73 µM
same,TGI,[27],8.15 µM
same,GI50,[28],3.76 µM
same,TGI,[28],17.1 µM
same,GI50,[29],4.06 µM
same,TGI,[29],17.3 µM
same,GI50,[30],2.4 µM
same,TGI,[30],9.05 µM
same,GI50,[31],2.93 µM
same,TGI,[31],9.45 µM
same,GI50,[32],2.44 µM
same,TGI,[32],7.33 µM
same,GI50,[33],2.86 µM
same,TGI,[33],11.9 µM
same,GI50,[34],3.27 µM
same,TGI,[34],10.6 µM
same,GI50,[35],4.21 µM
same,TGI,[35],26 µM
same,GI50,[36],4.49 µM
same,TGI,[36],19.3 µM
same,GI50,[37],3.33 µM
same,TGI,[37],17.7 µM
same,GI50,[38],3.43 µM
same,TGI,[38],13 µM
same,GI50,[39],2.93 µM
same,TGI,[39],10.5 µM
same,GI50,[40],3.76 µM
same,TGI,[40],11.4 µM
same,GI50,[41],4.49 µM
same,TGI,[41],16.6 µM
same,GI50,[42],2.01 µM
same,TGI,[42],5.41 µM
same,GI50,[43],3.77 µM
same,TGI,[43],16.9 µM
same,GI50,[44],2.37 µM
same,TGI,[44],5.32 µM
same,GI50,[45],4.95 µM
same,TGI,[45],21.3 µM
same,GI50,[46],1.88 µM
same,TGI,[46],4.17 µM
same,GI50,[47],2.6 µM
same,TGI,[47],8.46 µM
same,GI50,[48],3.74 µM
same,TGI,[48],19 µM
same,GI50,[49],4.87 µM
same,TGI,[49],30.8 µM
same,GI50,[50],3.97 µM
same,TGI,[50],15.4 µM
same,GI50,[51],3.94 µM
same,TGI,[51],16.4 µM
same,GI50,[52],3.38 µM
same,TGI,[52],14.5 µM
same,GI50,[53],2.48 µM
same,TGI,[53],10.6 µM
same,GI50,[54],4.26 µM
same,TGI,[54],12.8 µM
same,GI50,[55],3.36 µM
same,TGI,[55],13.4 µM
same,GI50,[56],2.4 µM
same,TGI,[56],6.99 µM
same,GI50,[57],4.05 µM
same,TGI,[57],18 µM
same,GI50,[58],2.91 µM
